Results published in patent US11186587B2, “Compound as ACC inhibitor and use thereof” (NANJING SANHOME PHARMACEUTICAL CO., LTD., priority 2017, dated 2021).

Assays:
[1] = target: ACC1 (Homo sapiens (Human), UniProt Q13085); test: ACC1 enzyme activity assay (ADP-Glo); type: biochemical; conditions: ACC1 enzyme 2 nM working solution, room temperature
Protocol: (§1) Compound preparation: the compounds of the present disclosure prepared in the above examples and the control compound were respectively formulated into 10 mM with DMSO for use.
(§2) Preparation of 1× reaction buffer (pH=7.4): HEPES stock solutions (1 M), MgCl2 (1 M), BRIJ-35 (10%), potassium citrate buffer (1 M), BSA (10 mg/mL) and DTT (500 mM) were formulated to enzyme reaction buffer containing HEPES (50 mM), MgCl2 (2 mM), BRIJ-35 (0.01%), potassium citrate buffer (2 mM), BSA (50 Gg/mL) and DTT (2 mM).
4.5 μL of 2.2×ACC1 enzyme (2 nM) working solution was added to a 384-well plate; and then 0.5 μL of different concentrations of compound were added. The mixture was incubated at room temperature for 15 min.
(§3) Negative control group: menstruum containing 5% DMSO; positive control group: menstruum containing 100 nM ND-630. The average values of each concentration and the positive and negative controls were calculated, and the standard deviation was calculated. […] The inhibition rate data was fitted by nonlinear regression equation to calculate IC50 of each compound. The nonlinear regression equation was Y=lowest value+(highest value−lowest value)/(1+10^((Log IC50−X)×HillSlope)), among which X is logarithm of the compound concentration and Y is inhibition percent (%).

[2] = target: ACC2 (Homo sapiens (Human), UniProt O00763); test: ACC2 enzyme activity assay (ADP-Glo); type: biochemical; conditions: ACC2 enzyme 1.1 nM working solution, room temperature
Protocol: as §1, §2
The mixture was incubated at room temperature for 15 min.
as §3

Sequence of ACC2 (O00763 whole entry): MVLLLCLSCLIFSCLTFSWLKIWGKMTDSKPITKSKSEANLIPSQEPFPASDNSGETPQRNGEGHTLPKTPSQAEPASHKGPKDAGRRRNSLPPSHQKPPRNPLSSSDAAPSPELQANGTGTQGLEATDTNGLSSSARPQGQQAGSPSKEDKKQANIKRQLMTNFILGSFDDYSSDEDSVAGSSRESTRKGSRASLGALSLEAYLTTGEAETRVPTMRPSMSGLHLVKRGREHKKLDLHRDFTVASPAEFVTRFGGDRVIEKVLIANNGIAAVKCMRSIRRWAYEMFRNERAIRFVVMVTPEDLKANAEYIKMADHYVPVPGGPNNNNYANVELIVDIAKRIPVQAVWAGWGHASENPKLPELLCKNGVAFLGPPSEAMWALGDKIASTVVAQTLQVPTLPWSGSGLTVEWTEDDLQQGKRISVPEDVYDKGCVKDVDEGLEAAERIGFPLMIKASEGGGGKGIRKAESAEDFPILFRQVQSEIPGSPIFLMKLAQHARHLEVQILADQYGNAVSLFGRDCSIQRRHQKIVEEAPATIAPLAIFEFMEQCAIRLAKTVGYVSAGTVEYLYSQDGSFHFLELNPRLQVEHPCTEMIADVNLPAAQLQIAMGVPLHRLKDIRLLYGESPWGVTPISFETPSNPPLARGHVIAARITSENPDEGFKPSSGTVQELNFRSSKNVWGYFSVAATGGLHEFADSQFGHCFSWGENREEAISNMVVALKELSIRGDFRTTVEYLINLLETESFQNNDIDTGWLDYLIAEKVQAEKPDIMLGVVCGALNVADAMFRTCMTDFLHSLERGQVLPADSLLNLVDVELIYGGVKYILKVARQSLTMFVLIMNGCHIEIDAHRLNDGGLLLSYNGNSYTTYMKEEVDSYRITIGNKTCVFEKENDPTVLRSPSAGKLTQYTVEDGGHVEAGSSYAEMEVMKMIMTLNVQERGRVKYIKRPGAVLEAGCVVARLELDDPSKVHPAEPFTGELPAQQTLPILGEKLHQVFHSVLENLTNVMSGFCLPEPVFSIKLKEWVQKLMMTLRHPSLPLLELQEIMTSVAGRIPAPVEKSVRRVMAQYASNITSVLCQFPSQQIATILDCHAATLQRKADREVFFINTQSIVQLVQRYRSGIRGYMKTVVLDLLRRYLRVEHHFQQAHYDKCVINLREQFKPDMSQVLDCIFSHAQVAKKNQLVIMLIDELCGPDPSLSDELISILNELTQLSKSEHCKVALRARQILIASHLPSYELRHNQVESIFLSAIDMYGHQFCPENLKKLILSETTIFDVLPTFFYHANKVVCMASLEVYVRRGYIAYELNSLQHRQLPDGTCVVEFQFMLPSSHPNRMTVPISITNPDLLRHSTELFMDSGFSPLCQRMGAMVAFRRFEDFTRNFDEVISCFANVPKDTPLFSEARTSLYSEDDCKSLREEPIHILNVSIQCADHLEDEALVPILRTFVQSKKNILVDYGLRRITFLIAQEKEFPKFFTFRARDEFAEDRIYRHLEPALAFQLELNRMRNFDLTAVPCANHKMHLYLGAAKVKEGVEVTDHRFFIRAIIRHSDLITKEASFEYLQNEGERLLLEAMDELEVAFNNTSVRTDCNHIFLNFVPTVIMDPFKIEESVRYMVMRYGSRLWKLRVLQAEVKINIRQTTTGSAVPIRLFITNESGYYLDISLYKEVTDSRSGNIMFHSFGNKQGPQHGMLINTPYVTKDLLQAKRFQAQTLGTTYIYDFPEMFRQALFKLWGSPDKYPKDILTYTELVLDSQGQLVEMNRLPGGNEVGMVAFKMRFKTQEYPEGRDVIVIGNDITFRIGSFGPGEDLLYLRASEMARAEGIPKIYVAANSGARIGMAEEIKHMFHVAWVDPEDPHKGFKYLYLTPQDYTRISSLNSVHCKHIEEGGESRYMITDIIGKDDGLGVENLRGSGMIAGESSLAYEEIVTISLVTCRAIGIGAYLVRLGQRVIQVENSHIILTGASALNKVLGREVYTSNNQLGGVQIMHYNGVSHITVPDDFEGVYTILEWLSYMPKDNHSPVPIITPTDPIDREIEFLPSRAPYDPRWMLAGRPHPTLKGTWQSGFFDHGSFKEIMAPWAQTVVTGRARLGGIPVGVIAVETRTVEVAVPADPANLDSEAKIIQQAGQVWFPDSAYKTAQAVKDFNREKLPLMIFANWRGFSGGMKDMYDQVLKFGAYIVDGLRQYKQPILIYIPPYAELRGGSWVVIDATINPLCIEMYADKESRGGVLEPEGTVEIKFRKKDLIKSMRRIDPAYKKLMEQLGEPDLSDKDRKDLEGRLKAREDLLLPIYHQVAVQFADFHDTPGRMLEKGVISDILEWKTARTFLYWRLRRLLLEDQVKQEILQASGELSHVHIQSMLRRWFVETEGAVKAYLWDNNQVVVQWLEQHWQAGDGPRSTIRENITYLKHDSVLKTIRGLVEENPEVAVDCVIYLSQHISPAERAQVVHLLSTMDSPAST

IC50 [1]	IC50 [2]	Compound
2.03 nM	7.92 nM	COc1ccccc1C(Cn1c(=O)n(C2CN(S(C)(=O)=O)C2)c(=O)c2c(C)c(-c3ncco3)sc21)OC1CCOCC1 (stereo not shown) [Example 9, 1-(2-(2-methoxyphenyl)-2-((tetrahydro-2H-pyran-4-yl)oxy)ethyl)-5-methyl-3-(1-(methylsulfonyl)azetidin-3-yl)-6-(oxazol-2-yl)thieno[2,3-d]pyrimidine-2,4(1H,3H)-dione]
1.35 nM	6.85 nM	CCS(=O)(=O)N1CC(n2c(=O)c3c(C)c(-c4ncco4)sc3n(CC(OC3CCOCC3)c3ccccc3OC)c2=O)C1 (stereo not shown) [Example 10, 3-(1-(ethylsulfonyl)azetidin-3-yl)-1-(2-(2-methoxyphenyl)-2-((tetrahydro-2H-pyran-4-yl)oxy)ethyl)-5-methyl-6-(oxazol-2-yl)thieno[2,3-d]pyrimidine-2,4(1H, 3H)-dione]
7.66 nM		COc1ccccc1C(Cn1c(=O)n(C(C)(C)C(=O)O)c(=O)c2c(C)c(-c3ncco3)sc21)OC1CCNCC1 (stereo not shown) [Example 17]
> 1000 nM		COc1ccccc1C(Cn1c(=O)n(C(C)(C)C(=O)O)c(=O)c2c(C)c(-c3ncco3)sc21)N1CCCCC1 (stereo not shown) [Example 18, 2-(1-(2-(2-methoxyphenyl)-2-(piperidin-1-yl)ethyl)-5-methyl-6-(oxazol-2-yl)-2,4-dioxo-1,4-dihydrothieno[2,3-d]pyrimidin-3(2H)-yl)-2-methylpropionic Acid]
23.3 nM		COc1ccccc1C(Cn1c(=O)n(C(C)(C)C(=O)O)c(=O)c2c(C)c(-c3ncco3)sc21)OC1CCN(C)CC1 (stereo not shown) [Example 19, 2-(1-(2-(2-methoxyphenyl)-2-((1-methylpiperidin-4-yl)oxy)ethyl)-5-methyl-6-(oxazol-2-yl)-2,4-dioxo-1,4-dihydrothieno[2,3-d]pyrimidin-3(2H)-yl)-2-methylpropionic Acid]
0.91 nM	8.03 nM	COc1ccccc1C(Cn1c(=O)n(C(C)(C)C(=O)O)c(=O)c2c(C)c(-c3ncco3)sc21)OC1CCN(C(C)=O)CC1 (stereo not shown) [Example 20, 2-(1-(2-((1-acetylpiperidin-4-yl)oxy)-2-(2-methoxyphenyl)ethyl)-5-methyl-6-(oxazol-2-yl)-2,4-dioxo-1,4-dihydrothieno[2,3-d]pyrimidin-3(2H)-yl)-2-methylpropionic Acid]
0.7 nM		COc1ccccc1C(Cn1c(=O)n(C(C)(C)C(=O)O)c(=O)c2c(C)c(-c3ncco3)sc21)OC1CCN(C(=O)C2CC2)CC1 (stereo not shown) [Example 21]
0.63 nM	5.13 nM	COc1ccccc1C(Cn1c(=O)n(C(C)(C)C(=O)O)c(=O)c2c(C)c(-c3ncco3)sc21)OC1CCN(S(C)(=O)=O)CC1 (stereo not shown) [Example 22]
11.5 nM		COc1ccccc1C(Cn1c(=O)n(C(C)(C)C(=O)O)c(=O)c2c(C)c(-c3ncco3)sc21)OC1CN(C(C)=O)C1 (stereo not shown) [Example 23]
0.87 nM	10.3 nM	COc1ccccc1C(Cn1c(=O)n(-c2ccc(C(=O)O)cc2OC)c(=O)c2c(C)c(-c3ncco3)sc21)OC1CCOCC1 (stereo not shown) [Example 26, 3-methoxy-4-(1-(2-(2-methoxyphenyl)-2-((tetrahydro-2H-pyran-4-yl)oxy)ethyl)-5-methyl-6-(oxazol-2-yl)-2,4-dioxo-1,4-dihydrothieno[2,3-d]pyrimidin-3(2H)-yl)benzoic Acid]
11.8 nM		COc1ccccc1C(Cn1c(=O)n(-c2cc(C(=O)O)ccc2OC)c(=O)c2c(C)c(-c3ncco3)sc21)OC1CCOCC1 (stereo not shown) [Example 27]
1.48 nM	7.8 nM	COc1ccccc1C(Cn1c(=O)n(-c2cccc(C(=O)O)c2F)c(=O)c2c(C)c(-c3ncco3)sc21)OC1CCOCC1 (stereo not shown) [Example 28, 2-Fluoro-3-(1-(2-(2-methoxyphenyl)-2-((tetrahydro-2H-pyran-4-yl)oxy)ethyl)-5-methyl-6-(oxazol-2-yl)-2,4-dioxo-1,4-dihydrothieno[2,3-d]pyrimidin-3(2H)-yl)benzoic Acid]
7.97 nM		COc1ccccc1C(Cn1c(=O)n(-c2cc(C(=O)O)ccc2F)c(=O)c2c(C)c(-c3ncco3)sc21)OC1CCOCC1 (stereo not shown) [Example 30, 4-Fluoro-3-(1-(2-(2-methoxyphenyl)-2-((tetrahydro-2H-pyran-4-yl)oxy)ethyl)-5-methyl-6-(oxazol-2-yl)-2,4-dioxo-1,4-dihydrothieno[2,3-d]pyrimidin-3(2H)-yl)benzoic Acid]
136 nM		COc1ccccc1C(Cn1c(=O)n(C2CC(OCCF)C2)c(=O)c2c(C)c(-c3ncco3)sc21)OC1CCOCC1 (stereo not shown) [Example 31]

The next lines start with the compound.

Compound	IC50 [1]	IC50 [2]
COc1ccccc1C(Cn1c(=O)n(C2CC(F)(F)C2)c(=O)c2c(C)c(-c3ncco3)sc21)OC1CCOCC1 (stereo not shown) [Example 2, 3-(3,3-Difluorocyclobutyl)-1-(2-(2-methoxyphenyl)-2-((tetrahydro-2H-pyran-4-yl)oxy)ethyl)-5-methyl-6-(oxazol-2-yl)thieno[2,3-d]pyrimidine-2,4(1H,3H)-dione]	8.7 nM	
COc1ccccc1[C@H](Cn1c(=O)n([C@H]2C[C@](C)(C(=O)O)C2)c(=O)c2c(C)c(-c3ncco3)sc21)OC1CCOCC1 [Example 3, (1R,3r)-3-(1-((R)-2-(2-methoxyphenyl)-2-((tetrahydro-2H-pyran-4-yl)oxy)ethyl)-5-methyl-6-(oxazol-2-yl)-2,4-dioxo-1,4-dihydrothieno[2,3-d]pyrimidine-3(2H)-yl)-1-methylcyclobutanecarboxylic Acid]	1 nM	11.9 nM
COc1ccccc1C(Cn1c(=O)n(-c2c(C)ccn3ccnc23)c(=O)c2c(C)c(-c3ncco3)sc21)OC1CCOCC1 (stereo not shown) [Example 5, 1-(2-(2-methoxyphenyl)-2-((tetrahydro-2H-pyran-4-yl)oxy)ethyl)-5-methyl-3-(7-methylimidazo[1,2-a]pyridin-8-yl)-6-(oxazol-2-yl)thieno[2,3-d]pyrimidine-2,4(1H, 3H)-diketone]	38.5 nM	
COc1ccccc1C(Cn1c(=O)n(C2CNC2)c(=O)c2c(C)c(-c3ncco3)sc21)OC1CCOCC1 (stereo not shown) [Example 6, 3-(azetidin-3-yl)-1-(2-(2-methoxyphenyl)-2-((tetrahydro-2H-pyran-4-yl)oxy)ethyl)-5-methyl-6-(oxazol-2-yl)thieno[2,3-d]pyrimidine-2,4(1H,3H)-dione]	2.81 nM	9.64 nM
COc1ccccc1C(Cn1c(=O)n(C2CN(C(=O)C3CC3)C2)c(=O)c2c(C)c(-c3ncco3)sc21)OC1CCOCC1 (stereo not shown) [Example 8, 3-(1-(cyclopropanecarbonyl)azetidin-3-yl)-1-(2-(2-methoxyphenyl)-2-((tetrahydro-2H-pyran-4-yl)oxy)ethyl)-5-methyl-6-thieno[2,3-d]pyrimidine-2,4(1H,3H)-dione]	1.12 nM	13.1 nM
COc1ccccc1C(Cn1c(=O)n(C2CN(C(=O)c3ccccc3)C2)c(=O)c2c(C)c(-c3ncco3)sc21)OC1CCOCC1 (stereo not shown) [Example 11, 3-(1-benzoylazetidin-3-yl)-1-(2-(2-methoxyphenyl)-2-((tetrahydro-2H-pyran-4-yl)oxy)ethyl)-5-methyl-6-(oxazol-2-yl)thieno[2,3-d]pyrimidine-2,4(1H,3H)-dione]	4.5 nM	
COc1ccccc1C(Cn1c(=O)n(C2CN(C(=O)N3CCOCC3)C2)c(=O)c2c(C)c(-c3ncco3)sc21)OC1CCOCC1 (stereo not shown) [Example 12, 1-(2-(2-methoxyphenyl)-2-((tetrahydro-2H-pyran-4-yl)oxy)ethyl)-5-methyl-3-(1-(morpholine-4-formyl)azetidin-3-yl)-6-(oxazol-2-yl)thieno[2,3-d]pyrimidine-2,4(1H,3H)-dione]	1.22 nM	8.04 nM
COc1ccccc1C(Cn1c(=O)n(C2CN(C(=O)c3ccccn3)C2)c(=O)c2c(C)c(-c3ncco3)sc21)OC1CCOCC1 (stereo not shown) [Example 13, 1-(2-(2-methoxyphenyl)-2-((tetrahydro-2H-pyran-4-yl)oxy)ethyl)-5-methyl-6-(oxazol-2-yl)-3-(1-pyridineformylazetidin-3-yl)thieno[2,3-d]pyrimidine-2,4(1H,3H)-dione]	2.33 nM	11.6 nM
COc1ccccc1C(Cn1c(=O)n(C2CN(C(=O)c3ncc[nH]3)C2)c(=O)c2c(C)c(-c3ncco3)sc21)OC1CCOCC1 (stereo not shown) [Example 14]	1.69 nM	7.85 nM
COc1ccccc1C(Cn1c(=O)n(C2CN(C(=O)N3CC(C)(C(=O)O)C3)C2)c(=O)c2c(C)c(-c3ncco3)sc21)OC1CCOCC1 (stereo not shown) [Example 15, 1-(3-(1-(2-(2-methoxyphenyl)-2-((tetrahydro-2H-pyran-4-yl)oxy)ethyl)-5-methyl-6-(oxazol-2-yl)-2,4-dioxo-1,2-dihydrothieno[2,3-d]pyrimidin-3 (4H)-yl)azetidine-1-carbonyl)-3-methylazetidine-3-carboxylic Acid]	8.79 nM	
COc1ccccc1C(Cn1c(=O)n(C2CN(C(=O)N3CC(C)(O)C3)C2)c(=O)c2c(C)c(-c3ncco3)sc21)OC1CCOCC1 (stereo not shown) [Example 16, 3-(1-(3-Hydroxy-3-methylazetidin-1-oyl)azetidin-3-yl)-1-(2-(2-methoxyphenyl)-2-((tetrahydro-2H-pyran-4-yl)oxy)ethyl)-5-methyl-6-(oxazol-2-yl)thieno[2,3-d]pyrimidine-2,4(1H,3H)-dione]	6.89 nM	
